Key:
[1] = test system: RAT; assay: Diuretic activity in the rat (hourly urine volume, sodium and potassium assay); format: in vivo; conditions: po; R = RAT; diuretic activity; read-out: Dose minimale active
Excerpt: d'urine sont déterminés toutes les heures. Le dosage de sodium et du potassium est effectué par spectrophotométrie.

[2] = molecular target: T1, ECHANGEUR D'ANIONS (Homo sapiens, UniProt P02730); assay: Anion exchanger of human erythrocytes; format: cell-based, ERYTHROCYTES HUMAINS; conditions: read-out: EFFET SUR L'ECHANGEUR D'ANIONS IC 50
T1 construct: systèmes de transport du sodium et du potassium des érythrocytes humains; endogenous in cells; host or cells: human erythrocytes
T1 sequence (P02730 1-911): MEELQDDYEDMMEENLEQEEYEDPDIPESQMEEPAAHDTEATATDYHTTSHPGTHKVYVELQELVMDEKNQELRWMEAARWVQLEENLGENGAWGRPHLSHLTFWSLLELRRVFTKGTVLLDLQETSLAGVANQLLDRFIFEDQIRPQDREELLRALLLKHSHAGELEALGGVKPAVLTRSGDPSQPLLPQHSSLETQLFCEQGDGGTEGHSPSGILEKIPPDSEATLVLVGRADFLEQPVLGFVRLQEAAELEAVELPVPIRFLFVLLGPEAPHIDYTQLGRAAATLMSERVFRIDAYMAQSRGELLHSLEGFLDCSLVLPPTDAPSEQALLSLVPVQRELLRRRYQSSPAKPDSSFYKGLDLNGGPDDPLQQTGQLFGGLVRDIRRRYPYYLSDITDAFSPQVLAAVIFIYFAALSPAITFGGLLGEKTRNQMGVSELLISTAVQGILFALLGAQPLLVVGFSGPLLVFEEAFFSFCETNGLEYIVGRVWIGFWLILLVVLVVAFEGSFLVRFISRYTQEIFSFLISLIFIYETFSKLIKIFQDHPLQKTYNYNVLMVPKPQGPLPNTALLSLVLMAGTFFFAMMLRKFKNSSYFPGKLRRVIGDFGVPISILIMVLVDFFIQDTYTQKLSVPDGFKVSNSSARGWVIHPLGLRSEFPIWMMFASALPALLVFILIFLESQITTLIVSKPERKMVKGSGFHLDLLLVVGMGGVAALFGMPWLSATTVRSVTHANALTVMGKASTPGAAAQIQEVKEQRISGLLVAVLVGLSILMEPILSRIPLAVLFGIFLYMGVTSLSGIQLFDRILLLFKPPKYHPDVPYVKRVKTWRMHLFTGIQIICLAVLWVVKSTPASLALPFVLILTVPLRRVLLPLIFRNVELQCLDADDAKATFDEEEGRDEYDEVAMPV
Excerpt: Cet effet a été étudié selon la méthodologie décrite par G. GARAY et coll. dans Naunyn-Schmidberg's Arch. Pharmakol. 334 (1986) 202-209 et dans Bioch. Pharm. 33 (1984) 2013-2020.

**Q.** Which results are given for `Cc1ccc(O)c(CCOc2ccccc2)c1` [ex 36]?
**A.** minimal effective dose [1]: 100 mg/kg; IC50 [2]: 0.8 µM

— patent publication EP0428423A2, “Aryloxy alkyl benzenes, processes for their preparation and pharmaceutical compositions containing them” (LIPHA S.A., priority 1989, dated 1991)
